Earlier results as cited in PMC10572743 (International Journal of Molecular Sciences, 2023).

Tested on: TNF-α production in PBMC stimulated with LPS
Settings: previous research; read-out: PMBC-LPS/TNFα; cited from earlier work

Structure (SMILES): C=CCn1nnc2ccc3sccc3c21 [A]
- IC50: 27.7 µM

Structure (SMILES): COc1ccc2ccc3nnn(CCCCO)c3c2c1 [B]
- IC50: 7.9 µM
